Results reported in US11325899B2, “Benzofurane and benzothiophene derivatives as PGE2 receptor modulators” (IDORSIA PHARMACEUTICALS LTD, priority 2017, dated 2022).

Assays:
Type in all cases: cell-based
EP2 receptor = biological target: T1, EP2 receptor (Homo sapiens, UniProt P43116); assay: hEP2 cAMP assay (SF295 glioblastoma cells, HTRF cAMP, PGE2 stimulation); settings: antagonistic activity
T1 construct: SF295 glioblastoma cells express high endogenous EP2 and no EP4; host or cells: SF295 glioblastoma cells
Experimental: (§1) The antagonistic activities of the compounds of formula (I) on the EP2 and EP4 receptors are also determined in accordance with the following experimental method.
(§2) Human tumor cell lines expressing endogenously either EP4 or EP2 are used and cAMP accumulation in cells upon PGE2 stimulation is monitored. SF295 glioblastoma cells express high endogenous EP2 and no EP4, whereas BT549 breast cancer cells, express high endogenous EP4 levels and very low EP2 levels.
(§3) As a detection method for cAMP the HTRF (homogeneous time resolved fluorescence) Cisbio kit (HTRF cAMP dynamic 2 kit 20′000 tests Cisbio Cat. #62AM4PEC) was used, which is based on a competitive immunoassay using a Cryptate-labeled anti-cAMP antibody and d2-labeled cAMP. Native cAMP produced by cells or unlabeled cAMP (for the standard curve) compete with exogenously added d2-labeled cAMP (acceptor) for binding to monoclonal anti-cAMP-Eu3+ Cryptate (donor). A FRET signal (Fluorescence Resonance Energy Transfer) is obtained only if the labeled anti-cAMP antibody binds the d2 labelled cAMP, thus the specific signal (i.e. energy transfer) is inversely proportional to the concentration of cAMP in the standard or sample.
(§4) The SF295 cells (NCI/No. 0503170) are detached from culture dishes with a cell dissociation buffer (Invitrogen, 13151-014), and collected in growing medium (GM: RPM1640 (Invitrogen 21875)/10% FCS, 1% Penicilin/streptomycin). Cells are counted washed and resuspended in assay buffer (AB; HBSS, 20 mM HEPES, 0.2% BSA; 2 mM IBMX). 4′000 cells in 5 μl of AB are seeded per well of a small volume 384 well plate (black with flat bottom, Greiner 784076).
Stock solutions of test compounds are made at a concentration of 10 mM in DMSO, and serially diluted in DMSO to concentrations required for inhibition dose response curves (tested concentration range 30 μM-0.4 nM; 30 μM-0.015 nM or 1 μM-0.01 nM).
PGE2 (Cayman 14010, stock solution: 75 μM in DMSO) is used as agonist at 75 nM final concentration, corresponding to EC80.
(§5) Two point five microliters of diluted compounds are transferred into the assay plate. Plate is pre-incubated 45 minutes at room temperature. Subsequently, 2.5 microliters of PGE2 (final conc. 75 nM) are transferred into the assay plate. Plate is incubated 30 minutes at room temperature. Five μl of each donor (anti-cAMP cryptate) and acceptor (cAMP-d2) are added and the plate is incubated another hour at room temperature in the dark and then read using a BMG LABTECH PHERAstar reader (Excitation: 337 nm, Emission: 620 and 665 nm).
(§6) The obtained Delta F (fluorescence) values (665 nm/620 nM) are converted into % cAMP values using the measurements of the cAMP calibrator provided in the kit. For each compound concentration the percentage of cAMP compared to DMSO control value as average±STDEV (each concentration is measured in duplicate) is calculated.
(§7) IC50 values and curves are generated with XLfit software (IDBS) using Dose-Response One Site model 203. When compounds were measured multiple times, mean values are given.

PTGER4 (EP4) = biological target: T2, PTGER4 (EP4) (Homo sapiens, UniProt P35408); assay: hEP4 b-arrestin assay (PathHunter HEK 293 PTGER4 b-arrestin cells); settings: antagonistic activity, beta-arrestin assay; read-out: hEP4 b-arr IC50
T2 construct: host or cells: HEK 293 (PathHunter PTGER4 b-arrestin cell line)
Outline: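 β-Arrestin recruitment to EP4 was read as enzyme-fragment-complementation chemiluminescence in stably transfected HEK 293 cells. After 15 min compound preincubation at 37 °C (ranges 10 μM–2 nM or 1 μM–0.2 nM), cells were stimulated 120 min with PGE2 at 20 nM, its EC80. IC50 values were fitted from duplicates, with repeat measurements averaged.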

EP4 receptor = biological target: T3, EP4 receptor (Homo sapiens, UniProt P35408); assay: hEP4 cAMP assay (BT549 breast cancer cells, HTRF cAMP, PGE2 stimulation); settings: antagonistic activity, PGE2 6 nM (EC80)
T3 construct: BT549 breast cancer cells, express high endogenous EP4 levels and very low EP2 levels; host or cells: BT549 breast cancer cells
Experimental: as §1, §2, §3
as §4, with “BT549” for “SF295”, “0507282)” for “0503170)”, “RPMI1640” for “RPM1640”
Stock solutions of test compounds are made at a concentration of 10 mM in DMSO, and serially diluted in DMSO to concentrations required for inhibition dose response curves (tested concentration range 30 μM-0.4 nM; 30 μM-0.015 nM or 1 uM-0.01 nM).
PGE2 (Cayman 14010, stock solution: 6 μM in DMSO) is used as agonist at 6 nM final concentration, corresponding to EC80.
as §5, with “6” for “75”, “(Excitation:337” for “(Excitation: 337”, “Emission:620” for “Emission: 620”
as §6, with “F(fluorescence)” for “F (fluorescence)”
as §7

PTGER2 (EP2) = biological target: T4, PTGER2 (EP2) (Homo sapiens, UniProt P43116); assay: hEP2 b-arrestin assay (PathHunter HEK 293 PTGER2 b-arrestin cells); settings: antagonistic activity, beta-arrestin assay; read-out: hEP2 b-arr IC50
T4 construct: host or cells: HEK 293 (PathHunter PTGER2 b-arrestin cell line)
Outline: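 Antagonism measured as inhibition of PGE2-driven β-arrestin 2 recruitment (enzyme fragment complementation, luminescence) in engineered HEK293 EP2 cells. Agonist: 5 μM PGE2, ~EC80, 120 min at 37 °C after 15 min compound preincubation; test range 10 μM-2 nM or 1 μM-0.2 nM, duplicates, IC50 fitted.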

T3 sequence (P35408 whole entry): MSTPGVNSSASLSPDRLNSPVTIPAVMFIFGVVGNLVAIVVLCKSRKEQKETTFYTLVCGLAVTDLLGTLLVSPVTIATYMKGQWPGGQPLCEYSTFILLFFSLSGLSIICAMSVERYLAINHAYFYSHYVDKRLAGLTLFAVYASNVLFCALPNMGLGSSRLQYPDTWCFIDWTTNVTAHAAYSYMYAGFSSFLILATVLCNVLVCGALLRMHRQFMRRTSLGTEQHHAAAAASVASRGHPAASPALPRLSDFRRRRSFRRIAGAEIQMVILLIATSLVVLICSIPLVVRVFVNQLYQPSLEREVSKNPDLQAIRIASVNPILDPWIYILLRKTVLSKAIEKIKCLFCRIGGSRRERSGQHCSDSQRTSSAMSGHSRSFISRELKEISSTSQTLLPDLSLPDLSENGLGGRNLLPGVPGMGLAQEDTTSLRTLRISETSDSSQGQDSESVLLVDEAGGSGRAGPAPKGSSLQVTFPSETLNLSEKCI
T2 sequence (P35408 whole entry): as above
T4 sequence (P43116 whole entry): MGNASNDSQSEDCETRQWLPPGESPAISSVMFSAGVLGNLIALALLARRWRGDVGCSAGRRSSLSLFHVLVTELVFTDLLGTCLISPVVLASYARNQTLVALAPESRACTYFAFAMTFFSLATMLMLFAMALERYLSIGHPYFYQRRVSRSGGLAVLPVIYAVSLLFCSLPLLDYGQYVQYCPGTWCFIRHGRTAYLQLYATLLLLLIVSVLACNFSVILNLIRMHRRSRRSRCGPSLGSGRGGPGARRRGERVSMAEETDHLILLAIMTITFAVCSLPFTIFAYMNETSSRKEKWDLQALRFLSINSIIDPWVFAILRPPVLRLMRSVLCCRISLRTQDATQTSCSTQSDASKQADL
T1 sequence (P43116 whole entry): as above

CCOc1cc(-c2cc(NCCc3c(C#N)sc4c(OC)cccc34)ncn2)sc1C(=O)O [Example 27, 5-{6-[2-(2-Cyano-7-methoxy-benzo[b]thiophen-3-yl)-ethylamino]-pyrimidin-4-yl}-3-ethoxy-thiophene-2-carboxylic acid]
IC50 (EP2 receptor): 11 nM | IC50 (PTGER4 (EP4)): 2 nM | IC50 (EP4 receptor): 4 nM

Cc1sc2c(C)cc(F)cc2c1CCNc1cc(-c2cc3ccc(C(=O)O)cc3[nH]2)ncn1 [Example 80, 2-{6-[2-(5-Fluoro-2,7-dimethyl-benzo[b]thiophen-3-yl)-ethylamino]-pyrimidin-4-yl}-1H-indole-6-carboxylic acid]
IC50 (PTGER2 (EP2)): 13 nM | IC50 (EP2 receptor): 20 nM | IC50 (EP4 receptor): 306 nM

Cc1sc2c(C)cc(F)cc2c1CCNc1cc(-c2ccc(-c3cc(O)no3)cc2)ncn1 [Example 81, 5-(4-{6-[2-(5-Fluoro-2,7-dimethyl-benzo[b]thiophen-3-yl)-ethylamino]-pyrimidin-4-yl}-phenyl)-isoxazol-3-ol [tautomeric form: 5-(4-(6-((2-(5-fluoro-2,7-dimethylbenzo[b]thiophen-3-yl)ethyl)amino)pyrimidin-4-yl)phenyl)isoxazol-3(2H)-one]]
IC50 (EP2 receptor): 392 nM | IC50 (PTGER4 (EP4)): 202 nM | IC50 (EP4 receptor): 323 nM

CCCc1cc(-c2cc(NCCc3c(C)sc4c(C)cc(F)cc34)ncn2)cc(F)c1C(=O)O [Example 93, 2-Fluoro-4-{6-[2-(5-fluoro-2,7-dimethyl-benzo[b]thiophen-3-yl)-ethylamino]-pyrimidin-4-yl}-6-propyl-benzoic acid]
IC50 (PTGER2 (EP2)): 36 nM | IC50 (EP2 receptor): 35 nM | IC50 (EP4 receptor): 362 nM

Cc1sc2c(C)cc(F)cc2c1CCNc1cc(-c2ccc(C(=O)O)c(CC(C)C)c2)ncn1 [Example 94, 4-{6-[2-(5-Fluoro-2,7-dimethyl-benzo[b]thiophen-3-yl)-ethylamino]-pyrimidin-4-yl}-2-isobutyl-benzoic acid]
IC50 (PTGER2 (EP2)): 45 nM | IC50 (EP2 receptor): 92 nM | IC50 (EP4 receptor): 302 nM

CCOc1cc(-c2cc(NCCc3c(C)sc4c(C)cc(F)cc34)ncn2)sc1CC(=O)OC [Example 95, (3-Ethoxy-5-{6-[2-(5-fluoro-2,7-dimethyl-benzo[b]thiophen-3-yl)-ethylamino]-pyrimidin-4-yl}-thiophen-2-yl)-acetic acid methyl ester]
IC50 (EP2 receptor): 647 nM | IC50 (PTGER4 (EP4)): 484 nM | IC50 (EP4 receptor): 855 nM

CCOc1cc(-c2cc(NCCc3c(C)oc4c(OC)cc(Cl)cc34)ncn2)ccc1CC(=O)O [Example 106, (4-{6-[2-(5-Chloro-7-methoxy-2-methyl-benzofuran-3-yl)-ethylamino]-pyrimidin-4-yl}-2-ethoxy-phenyl)-acetic acid]
IC50 (EP2 receptor): 396 nM | IC50 (PTGER4 (EP4)): 159 nM | IC50 (EP4 receptor): 247 nM

CCOc1cc(-c2cc(NCCc3c(C)oc4c(Cl)cccc34)ncn2)ccc1CC(=O)O [Example 108, (4-{6-[2-(7-Chloro-2-methyl-benzofuran-3-yl)-ethylamino]-pyrimidin-4-yl}-2-ethoxy-phenyl)-acetic acid]
IC50 (PTGER2 (EP2)): 31 nM | IC50 (EP2 receptor): 107 nM | IC50 (EP4 receptor): 264 nM

CCOc1cc(-c2cc(NCCc3c(C)sc4c(C)ccc(Cl)c34)ncn2)ccc1CC(=O)O [Example 111, (4-{6-[2-(4-Chloro-2,7-dimethyl-benzo[b]thiophen-3-yl)-ethylamino]-pyrimidin-4-yl}-2-ethoxy-phenyl)-acetic acid]
IC50 (EP2 receptor): 561 nM | IC50 (PTGER4 (EP4)): 197 nM | IC50 (EP4 receptor): 433 nM

CCOc1cc(-c2cc(NCCc3c(C)sc4c(Cl)cc(F)cc34)ncn2)ccc1CC(=O)O [Example 113, (4-{6-[2-(7-Chloro-5-fluoro-2-methyl-benzo[b]thiophen-3-yl)-ethylamino]-pyrimidin-4-yl}-2-ethoxy-phenyl)-acetic acid]
IC50 (EP2 receptor): 284 nM | IC50 (PTGER4 (EP4)): 209 nM | IC50 (EP4 receptor): 765 nM

CCOc1cc(-c2cc(NCCc3c(C)sc4c(Cl)ccc(Cl)c34)ncn2)ccc1CC(=O)O [Example 114, (4-{6-[2-(4,7-Dichloro-2-methyl-benzo[b]thiophen-3-yl)-ethylamino]-pyrimidin-4-yl}-2-ethoxy-phenyl)-acetic acid]
IC50 (EP2 receptor): 477 nM | IC50 (PTGER4 (EP4)): 246 nM | IC50 (EP4 receptor): 781 nM

CCOc1cc(-c2cc(NCCc3c(C)oc4c(C)cc(F)cc34)ncn2)ccc1OCC(=O)O [Example 124, (2-Ethoxy-4-{6-[2-(5-fluoro-2,7-dimethyl-benzofuran-3-yl)-ethylamino]-pyrimidin-4-yl}-phenoxy)-acetic acid]
IC50 (PTGER2 (EP2)): 26 nM | IC50 (EP2 receptor): 115 nM | IC50 (EP4 receptor): 310 nM

CCOc1cc(-c2cc(NCCc3c(C)sc4c(C)cc(F)cc34)ncn2)ccc1NC(=O)C(=O)O [Example 145, N-(2-Ethoxy-4-{6-[2-(5-fluoro-2,7-dimethyl-benzo[b]thiophen-3-yl)-ethylamino]-pyrimidin-4-yl}-phenyl)-oxalamic acid]
IC50 (PTGER2 (EP2)): 13 nM | IC50 (EP2 receptor): 76 nM | IC50 (EP4 receptor): 271 nM

CCOc1cc(-c2cc(NCCc3c(C)sc4c(C)cc(F)cc34)ncn2)sc1-c1noc(=O)[nH]1 [Example 159, 3-(3-Ethoxy-5-{6-[2-(5-fluoro-2,7-dimethyl-benzo[b]thiophen-3-yl)-ethylamino]-pyrimidin-4-yl}-thiophen-2-yl)-[1,2,4]oxadiazol-5(4H)-one [tautomeric form: 3-(3-ethoxy-5-(6-((2-(5-fluoro-2,7-dimethylbenzo[b]thiophen-3-yl)ethyl)amino)pyrimidin-4-yl)thiophen-2-yl)-[1,2,4]oxadiazol-5-ol]]
IC50 (EP2 receptor): 11 nM | IC50 (PTGER4 (EP4)): 3 nM | IC50 (EP4 receptor): 5 nM

(4-{6-[2-(4,5-Difluoro-7-methoxy-2-methyl-benzofuran-3-yl)-ethylamino]-pyrimidin-4-yl}-2-ethoxy-phenoxy)-acetic acid [Example 123]
IC50 (EP2 receptor): 359 nM | IC50 (PTGER4 (EP4)): 142 nM | IC50 (EP4 receptor): 219 nM
